Experimental data published in patent US11052127B2, “HSP for use in treatment for imiquimod related side effects” (Alfa Biogene International B.V., priority 2012, dated 2021).
Like-named read-outs stand apart in the source and are kept apart here.

Experiments:
BALBc mice [1] = assay: Ear pinnae thickness in mice treated with imiquimod cream with or without HSP70 cream; type: in vivo; conditions: Group 1, imiquimod 5% cream only, 3.125 mg daily dose
Procedure: (§1) The effect of HSP was tested on mice (BALBc mice, male 10-12 weeks old) The mice were divided in 5 groups of eight mice each: […] Group 2: mice were treated for 6 days as group 1. […] Group 3: mice were treated for 6 days as group 2, except for the cream comprising 250 μg/ml HSP (100 μg HSP per dose) Group 4: mice were treated as group 2 except for the carrier cream comprising no Hsp70. (mice were treated for six days, twice a day, once four hours before treatment with imiquimod, once four hours after treatment with imiquimod. Group 5: control group, no cream application. Day 1: initial evaluation for visible signs of psoriasis. […] Animal backs were shaved and photographs were taken. Thickness of both ear pinnae were measured. Cream application was performed creams. All animals were assessed and examined once daily for behavioural changes and adverse effects. Ear pinnae measurements are performed daily. Skin changes Study groups on ordinal and continuous outcomes were compared using the Kruskal-Wallis test with a […] adjustment for pairwise group comparisons for an overall statistical significance criteria of 0.05 for each outcome.

BALBc mice [2] = assay: Histology of back skin samples: average epidermal thickness of the treated skin; type: in vivo; conditions: day 7, Group 1, imiquimod only
Procedure: (§2) Group 1: mice were treated for 6 days on shaved back and right ear with one daily application of imiquimod 5% cream to the skin (3.125 mg daily dose)
(§3) Group 2: mice were treated for 6 days as group 1. In addition the part of the skin to which imiquimod was applied was treated twice daily with the cream comprising 50 μg/ml HSP (20 μg HSP per dose). Each day, the cream comprising HSP70 was applied to the skin in a 1 mm layer, 4 hours before application of the imiquimod, and again 4 hours after treatment with imiquimod.
Day 7: The animals were euthanized and skin tissue and blood was processed. Inflammatory markers were measured with Q-PCR (skin samples). Skin samples were histologically examined. […]

BALBc mice [3] = assay: Cumulative PASI score (erythema, scales, thickness) of imiquimod-treated mice; type: in vivo; conditions: day 7; maximum of 12 points; Group 1, imiquimod only
Procedure: as §1, with “taken.” for “taken. Thickness of both ear pinnae were measured. Cream application was performed creams. All animals”, “by the PASI score. On day 7, photographs of all animals (backs) were taken to document progression of the disease.” for “and examined once daily for behavioural changes and adverse effects. Ear pinnae measurements are performed daily. Skin changes”

BALBc mice [4] = assay: Visual appearance (scaling) of the backs of the mice, FIG. 1; type: in vivo; conditions: after 6 days of treatment
Procedure: as §2, §3
From left to right: Group 2 (20 μg HSP), Group 3 (100 μg HSP), Group 4 (carrier cream only) and Group 1 (imiquimod only)

patients = conditions: cited from earlier work

- ear thickness (BALBc mice [1]; Day 1): 0.21 mm
- ear thickness (BALBc mice [1]; Day 5): 0.28 mm
- ear thickness (BALBc mice [1]; Day 6): 0.37 mm
- ear thickness (BALBc mice [1]; Day 7): 0.40 mm
- average epidermal thickness of the treated skin (BALBc mice [2]): 58 μm
- cumulative PASI score (BALBc mice [3]): 6.5
SMILES: CC(C)Cn1cnc2c(N)nc3ccccc3c21 [imiquimod]
- scaling of the backs of the mice (BALBc mice [4]): severely scaled
- remote site skin reaction: edema (patients; in females): 1%
- remote site skin reaction: erythema (patients; in females): 3%
- remote site skin reaction: ulceration (patients; in females): 2%
- remote site skin reaction: edema (patients; in males): 1%
- remote site skin reaction: erosion (patients; in males): 2%
- remote site skin reaction: erythema (patients; in males): 1%
- remote site skin reaction: induration (patients; in males): 1%
- remote site skin reaction: scaling/excoriation/flaking (patients; in males): 1%
- remote site reactions: bleeding, burning, itching, pain, dryness, scabbing, crusting, redness, hardening of the skin, tenderness, tinea cruris (patients; in vivo): more than 1 % of patients
